The record followed here is US20260217677A1, “ORGANIC COMPOUNDS AS NLRP3 INHIBITORS” (KODIAK SCIENCES, INC., priority 2023, published 2026).

For one experiment, the system named is IL-1β release in U937 cells after NLRP3 activation. Briefly: IL-1β release inhibition in U937 cells (MSD V-Plex). The following applies: Homo sapiens, U-937, read-out: IL-1β IC50, Table 3; PMA-differentiated U937 cells, 1 μg/mL LPS 3 h, compound 30 min, 10 mM nigericin 1 h.
Experimental: Differentiating media was prepared by adding 20 nM phorbol 12-myristate 13-acetate (PMA) (AdipoGen AG-CN2-0010-M005) to growth medium. A cell suspension was prepared with differentiating media at 500K cells/mL. […] Plates were placed in an incubator for 90 hours. […] Differentiating media was removed and priming media was added to each well. The plates were placed in the incubator for three (3) hours. 20 mM compound DMSO stock solutions were prepared and were further diluted to 0.4 mM; This solution was serially diluted 6 times in a 1:5 ratio. A solvent control was included.
After three (3) hours of priming, all the media was removed. Next, assay media with compounds was added in duplicate columns. The plate was placed in an incubator for 30 min. Media with a final concentration of 10 mM nigericin was then added for one (1) hour. The supernatant was collected and frozen immediately at −80° C. The plate was transferred to −20° C. the next day and for later determination of cytokine IL-1ß levels.
The release of IL-1ß into the cell media was determined with the MSD® Multi-Spot Assay System (V-Plex, IL-1ß kit, K151KPD). Following the manufacturer's protocol (Alternate Protocol 3, Dilute-In-Plate), the level of IL-1ß in the above collected supernatant plate was measured using electro-chemiluminescent signals. Using MSD DISCOVERY WORKBENCH® analysis software, the signals were converted to the concentration of IL-1ß in each well. The IC50 values of the compounds were calculated using fitted non-linear regression curve in Graph Pad Prism software. The detection range of IL-1ß using MSD kit was approximately 0.15 to 600 μg/mL (based on various lots of standards purchased from MSD).
On to `Cc1cc(N[C@@H]2CCCN(C[C@H]3C[C@@H](O)C3)C2)nnc1-c1ccc2sccc2c1O` [Example 51, 5-(6-(((R)-1-(((1s,3S)-3-Hydroxycyclobutyl)methyl)piperidin-3-yl)amino)-4-methylpyridazin-3-yl)benzo[b]thiophen-4-ol], for which the concentration for half-maximal inhibition (IC50) is under 5 nM.
As for `Cc1c(-c2ccc(C(F)(F)F)cc2O)nnc2c1CCCN2[C@@H]1CCCN(C2CCN(C3CC(O)C3)CC2)C1` (stereo partly drawn) [Example 44, 2-{8-[(3R)-1′-(3-Hydroxycyclobutyl)-[1,4′-bipiperidin]-3-yl]-4-methyl-5H,6H,7H-pyrido[2,3-c]pyridazin-3-yl}-5-(trifluoromethyl)phenol], the IC50 was in the range of 50 to 500 nM.
As for `Cc1cc(N[C@@H]2CCCN(CCN3CC[C@H](O)C3)C2)nnc1-c1ccc(C(F)(F)F)cc1O` [Compound 4, (S)-1-(2-((R)-3-((6-(2-Hydroxy-4-(trifluoromethyl)phenyl)-5-methylpyridazin-3-yl)amino)piperidin-1-yl)ethyl)pyrrolidin-3-ol], the half-inhibitory concentration (IC50) was over 500 nM.
Take `O=C(CN1CCC[C@@H](Nc2nnc(-c3ccc(C(F)(F)F)cc3O)c3c2COC3)C1)N1CCC2(CC1)CC(O)C2` [Compound 24, (R)-2-(3-((4-(2-Hydroxy-4-(trifluoromethyl)phenyl)-5,7-dihydrofuro[3,4-d]pyridazin-1-yl)amino)piperidin-1-yl)-1-(2-hydroxy-7-azaspiro[3.5]nonan-7-yl)ethan-1-one]: the half-maximal inhibitory concentration (IC50) lay within 5 to 50 nM.
The same measure, in the same setting: the figure for `O=C(CN1CCC[C@@H](Nc2nnc(-c3ccc(F)cc3O)c3c2CCC3)C1)N1CCC(O)CC1` [Compound 20, 2-[(3R)-3-{[4-(4-Fluoro-2-hydroxyphenyl)-5H,6H,7H-cyclopenta[d]pyridazin-1-yl]amino}piperidin-1-yl]-1-(4-hydroxypiperidin-1-yl) ethenone] is 50 to 500 nM; for `Cc1cc(N[C@@H]2CCCN(CCN3CC[C@@H](O)C3)C2)nnc1-c1ccc(C(F)(F)F)cc1O` [Compound 3, (R)-1-(2-((R)-3-((6-(2-Hydroxy-4-(trifluoromethyl)phenyl)-5-methylpyridazin-3-yl)amino)piperidin-1-yl)ethyl)pyrrolidin-3-ol] it is over 500 nM; for `Cc1c(N[C@@H]2CCCN(CC(=O)N3CCC(O)CC3)C2)nnc(-c2ccc3sccc3c2O)c1C` [Example 50, (R)-2-(3-((6-(4-Hydroxybenzo[b]thiophen-5-yl)-4,5-dimethylpyridazin-3-yl)amino)piperidin-1-yl)-1-(4-hydroxypiperidin-1-yl)ethan-1-one] it is under 5 nM.
Still for that read-out and setting: the figure for `Cc1c(-c2ccc(C(F)(F)F)cc2O)nnc2c1CCCN2[C@@H]1CCCN(CC(=O)N2CCC3(CC2)CC(O)C3)C1` [Example 43, 2-[(3R)-3-{3-[2-Hydroxy-4-(trifluoromethyl)phenyl]-4-methyl-5H,6H,7H-pyrido[2,3-c]pyridazin-8-yl}piperidin-1-yl]-1-{2-hydroxy-7-azaspiro[3.5]nonan-7-yl}ethanone] is 50 to 500 nM; for `Cc1cc(N[C@@H]2CCCN(CCC(=O)N3CCC(O)CC3)C2)nnc1-c1ccc(C(F)(F)F)cc1O` [Example 46, 3-[(3R)-3-({6-[2-Hydroxy-4-(trifluoromethyl)phenyl]-5-methylpyridazin-3-yl}amino)piperidin-1-yl]-1-(4-hydroxypiperidin-1-yl) propan-1-one] it is under 5 nM.
On the same count and under the same terms, the same measure for `Oc1cc(C(F)(F)F)ccc1-c1nnc(N[C@@H]2CCCN(C[C@H]3C[C@H](O)C3)C2)c2c1COC2` [Example 59, 2-(4-(((R)-1-(((1r,3R)-3-Hydroxycyclobutyl)methyl)piperidin-3-yl)amino)-5,7-dihydrofuro[3,4-d]pyridazin-1-yl)-5-(trifluoromethyl)phenol]: under 5 nM.
With `Oc1cc(C(F)(F)F)ccc1-c1nnc(N[C@@H]2CCCN(CCN3CC[C@@H](O)C3)C2)c2c1COC2` [Example 36, (R)-1-(2-((R)-3-((4-(2-Hydroxy-4-(trifluoromethyl)phenyl)-5,7-dihydrofuro[3,4-d]pyridazin-1-yl)amino)piperidin-1-yl)ethyl)pyrrolidin-3-ol], the concentration for half-maximal inhibition (IC50) was 5 to 50 nM.
The same measure, in the same setting: the figure for `Cc1cc(N[C@@H]2CCCN(C3CCC(O)CC3)C2)nnc1-c1ccc(C(F)(F)F)cc1O` (single isomer, unassigned) [Example 53] is under 5 nM.
The same measure, in the same setting: the same measure for `Cc1cc(-c2ccc(C(F)(F)F)cc2O)nnc1N[C@@H]1CCCN(CC(=O)N2CC[C@@H](O)C2)C1` [Example 32, 2-((R)-3-((6-(2-Hydroxy-4-(trifluoromethyl)phenyl)-4-methylpyridazin-3-yl)amino)piperidin-1-yl)-1-((R)-3-hydroxypyrrolidin-1-yl)ethan-1-one]: 5 to 50 nM.

The experiment is the same for the next values; noted with them: Homo sapiens, U-937, read-out: IL-1β IC50, Table 4; PMA-differentiated U937 cells, 1 μg/mL LPS 3 h, compound 30 min, 10 mM nigericin 1 h.
`Oc1cc(C(F)(F)F)ccc1-c1nnc(N[C@@H]2CCCN(C3CNC3)C2)c2c1CCC2` [Example 80, (R)-2-(4-((1-(Azetidin-3-yl)piperidin-3-yl)amino)-6,7-dihydro-5H-cyclopenta[d]pyridazin-1-yl)-5-(trifluoromethyl)phenol]: the half-inhibitory concentration (IC50) lay within 5 to 50 nM.
Still for that read-out and setting: the same measure for `Cc1cc(N[C@@H]2CCCN(C3CCN(CCN)CC3)C2)nnc1-c1ccc(C(F)(F)F)cc1O` [Example 98, (R)-2-(6-((1′-(2-Aminoethyl)-[1,4′-bipiperidin]-3-yl)amino)-4-methylpyridazin-3-yl)-5-(trifluoromethyl)phenol]: 50 to 500 nM.
Still for that read-out and setting: the figure for `Cc1cc(N[C@@H]2CCCN(CC(=O)N3CCC(N)CC3)C2)nnc1-c1ccc(C(F)(F)F)cc1O` [Example 83, (R)-1-(4-Aminopiperidin-1-yl)-2-(3-((6-(2-hydroxy-4-(trifluoromethyl)phenyl)-5-methylpyridazin-3-yl)amino)piperidin-1-yl)ethan-1-one] is 50 to 500 nM.
The same measure, in the same setting: the same measure for `Cc1cc(N[C@@H]2CCCN(CC(=O)N3CCN[C@@H](C)C3)C2)nnc1-c1ccc(C(F)(F)F)cc1O` [Example 111, 2-((R)-3-((6-(2-Hydroxy-4-(trifluoromethyl)phenyl)-5-methylpyridazin-3-yl)amino)piperidin-1-yl)-1-((S)-3-methylpiperazin-1-yl)ethan-1-one]: 5 to 50 nM.
Consider `Cc1cc(N[C@@H]2CCCN(C3CNC3)C2)nnc1-c1ccc(C(F)(F)F)cc1O` [Example 84, (R)-2-(6-((1-(Azetidin-3-yl)piperidin-3-yl)amino)-4-methylpyridazin-3-yl)-5-(trifluoromethyl)phenol], for which the IC50 lay within 5 to 50 nM.
As for `Cc1cc(N[C@@H]2CCCN(CC(=O)N3CCN[C@H](C)C3)C2)nnc1-c1ccc(C(F)(F)F)cc1O` [Example 110, 2-((R)-3-((6-(2-Hydroxy-4-(trifluoromethyl)phenyl)-5-methylpyridazin-3-yl)amino)piperidin-1-yl)-1-((R)-3-methylpiperazin-1-yl)ethan-1-one], the IC50 lay within 5 to 50 nM.

The experiment is the same for the next values; noted with them: read-out: IL-1β IC50; Table 3; PMA-differentiated U937 cells, 1 μg/mL LPS 3 h, compound 30 min, 10 mM nigericin 1 h.
With `Cc1cc(N[C@@H]2CCCN(CC(=O)N(C)[C@H]3CC[C@H](O)CC3)C2)nnc1-c1ccc(C(F)(F)F)cc1O` [Compound 18, 2-((R)-3-((6-(2-Hydroxy-4-(trifluoromethyl)phenyl)-5-methylpyridazin-3-yl)amino)piperidin-1-yl)-N-((1r,4R)-4-hydroxycyclohexyl)-N-methylacetamide], the IC50 lay in the range of 5 to 50 nM.
The same measure, in the same setting: the same measure for `Cc1cc(N[C@@H]2CCCN(C3CCN(C4CC(O)C4)CC3)C2)nnc1-c1ccc(C(F)(F)F)cc1O` (single isomer, unassigned) [Example 38B]: 5 to 50 nM.
For the compound `Cc1cc(N[C@@H]2CCCN(C3CCN(C4CCC(O)CC4)CC3)C2)nnc1-c1ccc(C(F)(F)F)cc1O` (single isomer, unassigned) [Example 39B], the half-inhibitory concentration (IC50) lay within 5 to 50 nM.

As a reminder, the IC50 is the concentration that inhibits the measured activity by half.
